Experimental data reported in patent US20050107447A1, “Novel lysophosphatidic acid receptor agonists and antagonists” (priority 2003, published 2005).
“Also recorded” adds a separate entry of the source.

Experiments:
[1] = biological target: T1, LPA1 (Mus musculus, UniProt P61793); assay: GTP[γ35S] binding, LPA1 transfected HEK293T (or RH7777) cell membranes; assay type: biochemical; parameters: expressed in transfected cells; host or cells: HEK293T (transient, with G protein plasmids); some results from RH7777 rat hepatoma membranes transfected with LPA1 DNA only
Protocol: (§1) The appropriate receptor plasmid DNA (encoding mouse LPA1, human LPA2 or human LPA3) was mixed with equal amounts of expression plasmids (pcDNA3) encoding a mutated (C351F) rat Gi2a, cow β1, and γ2 proteins and these DNAs were used to transfect monolayers of HEK293T cells (where ‘T’ indicates expression of the SV-40 virus large T antigen) using the calcium phosphate precipitate method. After about 60 hours, cells were harvested, membranes were prepared, aliquoted and stored at −70° C. until use.
(§2) The GTP[35 γS] assay was performed as described by us previously. Membranes containing 5 ug of protein were incubated in 0.1 ml GTP-binding buffer (in mM: HEPES 50, NaCl 100, MgCl2 10, pH7.5) containing […], […], 0.1 nM GTP[35 γS] (1200 Ci/mmol), and indicated lipid(s) for 30 minutes at 30° C. Samples were analyzed for membrane-bound radionuclide using a Brandel Cell Harvester (Gaithersburg, Md.).
(§3) The X-intercept of the linear transformation is equal to the inverse log of the κ1.
(§4) Membranes prepared from these cells are used to measure GTPγ[^35S] binding as a function of test compound concentration. The resulting dose-response curves provide relative potency (EC50) and efficacy, (Emax) for the test compounds.

[2] = system: MDA MB-231 cells; assay: Calcium mobilization through endogenous LPA receptors in MDA MB-231 cells; assay type: cell-based; conditions: 1 μM
Protocol: (§5) wls-b8L and the other phosphonates were also tested also for activity in three whole cell assays. […] Finally, the activity of wls-b8L in activating a chloride conductance in Xenopus laevis ooctyes was measured.

[3] = system: human platelets; assay: Aggregation of human platelets; assay type: cell-based; conditions: concentrations up to 10 micromolar
[4] = biological target: T1, LPA1; assay: cAMP accumulation in RH7777 cells stably expressing LPA1; assay type: cell-based; parameters: expressed in transfected cells; conditions: concentration of 1 μM
Protocol: Assays for cAMP accumulation were conducted on populations of 5×10^5 cells stimulated with […] in the presence of the phosphodiesterase inhibitor isomethylbutylxanthine (IBMX) for 15 minutes at 30° C. cAMP was measured by automated radioimmunoassay.
Rat hepatoma RH7777 cell monolayers were transfected with the mLPA1 plasmid DNA using the calcium phosphate precipitate method and clonal populations expressing the neomycin phosphotransferase gene were selected by addition of geneticin (G418) to the culture media. The RH7777 cells were grown in monolayers at 37° C. in a 5% CO02/95% air atmosphere in growth media consisting of: 90% MEM, 10% fetal bovine serum, 2 mM glutamine and 1 mM sodium pyruvate.
as §5

[5] = system: endogenous LPA receptor of Xenopus laevis oocytes; assay: Chloride conductance in Xenopus laevis oocytes, endogenous receptor; assay type: cell-based; conditions: uninjected oocytes
Protocol: as §5

[6] = biological target: T2, LPA3 (Homo sapiens, UniProt Q9UBY5); assay: Chloride conductance in Xenopus oocytes injected with human LPA3 mRNA; assay type: cell-based; parameters: expressed in transfected cells; host or cells: Xenopus laevis oocytes injected with mRNA; conditions: 10 μM
T2 sequence (Q9UBY5 1-353): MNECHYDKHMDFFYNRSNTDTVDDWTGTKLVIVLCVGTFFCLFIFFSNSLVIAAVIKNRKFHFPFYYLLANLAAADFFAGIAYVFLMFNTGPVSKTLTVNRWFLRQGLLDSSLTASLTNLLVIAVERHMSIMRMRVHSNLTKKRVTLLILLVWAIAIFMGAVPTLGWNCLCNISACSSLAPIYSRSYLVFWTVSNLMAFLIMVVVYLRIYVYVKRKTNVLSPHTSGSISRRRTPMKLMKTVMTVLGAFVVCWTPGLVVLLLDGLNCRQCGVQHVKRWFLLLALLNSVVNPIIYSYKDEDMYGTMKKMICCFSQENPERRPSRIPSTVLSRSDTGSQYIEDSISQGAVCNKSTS
Protocol: as §5

[7] = biological target: T3, LPA2 (Homo sapiens, UniProt Q9HBW0); assay: Chloride conductance in Xenopus oocytes injected with human LPA2 mRNA; assay type: cell-based; parameters: expressed in transfected cells; host or cells: Xenopus laevis oocytes injected with mRNA; conditions: 10 μM
Protocol: as §5

[8] = biological target: T4, LPP2 (PAP2c) phosphatase (Homo sapiens, UniProt O43688); assay: LPP inhibition, competition with 50 nM [32P]LPA; assay type: biochemical; conditions: 0.1, 1.0 and 10.0 mM vs 50 nM [32P]LPA
T4 sequence (O43688 1-288): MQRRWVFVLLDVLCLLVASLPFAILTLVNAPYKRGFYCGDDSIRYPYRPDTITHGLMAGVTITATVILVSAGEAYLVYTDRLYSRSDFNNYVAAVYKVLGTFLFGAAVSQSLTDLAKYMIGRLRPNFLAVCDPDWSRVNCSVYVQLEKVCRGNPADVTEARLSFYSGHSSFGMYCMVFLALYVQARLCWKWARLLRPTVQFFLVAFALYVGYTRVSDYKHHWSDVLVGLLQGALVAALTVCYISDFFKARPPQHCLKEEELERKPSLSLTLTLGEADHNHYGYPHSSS
Protocol: (§6) NOHPP was also tested for activity at the three cloned LPPs. Although the phosphonate head group eliminates the possibility of NOHPP acting as a substrate, it is possible that the compound could be a competitive inhibitor.

[9] = biological target: T5, LPP3 (PAP2b) phosphatase (Homo sapiens, UniProt O14495); assay: LPP inhibition, competition with 50 nM [32P]LPA; assay type: biochemical; conditions: for Rank order potency of LPP inhibition: LPP3 vs LPP1 vs LPP2
T5 sequence (O14495 1-311): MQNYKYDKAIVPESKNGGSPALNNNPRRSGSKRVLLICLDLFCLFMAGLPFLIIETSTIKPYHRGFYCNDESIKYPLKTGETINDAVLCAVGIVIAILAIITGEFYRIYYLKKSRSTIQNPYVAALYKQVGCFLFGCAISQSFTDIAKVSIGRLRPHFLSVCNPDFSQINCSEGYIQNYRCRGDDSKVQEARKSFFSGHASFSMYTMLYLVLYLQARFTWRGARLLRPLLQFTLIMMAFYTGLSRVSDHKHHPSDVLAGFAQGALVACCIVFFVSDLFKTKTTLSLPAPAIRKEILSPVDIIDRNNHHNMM
Protocol: as §6

[10] = biological target: T6, LPP1 (PAP2a) phosphatase (Homo sapiens, UniProt O14494); assay: LPP inhibition, competition with 50 nM [32P]LPA; assay type: biochemical; conditions: 0.1, 1.0 and 10.0 mM vs 50 nM [32P]LPA
T6 sequence (O14494 1-284): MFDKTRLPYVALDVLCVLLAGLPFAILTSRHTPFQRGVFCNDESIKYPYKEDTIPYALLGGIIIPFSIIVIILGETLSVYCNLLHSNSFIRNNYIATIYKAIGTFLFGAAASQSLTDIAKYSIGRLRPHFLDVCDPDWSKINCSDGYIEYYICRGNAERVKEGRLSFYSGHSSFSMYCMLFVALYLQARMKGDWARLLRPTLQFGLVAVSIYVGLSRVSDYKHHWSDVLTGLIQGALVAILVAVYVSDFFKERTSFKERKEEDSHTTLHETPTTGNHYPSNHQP
Protocol: as §6

[11] = biological target: T2, LPA3; assay: GTP[γ35S] binding, LPA3 transfected HEK293T cell membranes; assay type: biochemical; parameters: expressed in transfected cells; host or cells: HEK293T (transient, calcium phosphate)
Protocol: as §1, §2, §3, §4

[12] = biological target: T3, LPA2; assay: GTP[γ35S] binding, LPA2 transfected HEK293T cell membranes; assay type: biochemical; parameters: expressed in transfected cells; host or cells: HEK293T (transient, calcium phosphate)
Protocol: as §1, §2, §3, §4

T1 sequence (P61793 whole entry): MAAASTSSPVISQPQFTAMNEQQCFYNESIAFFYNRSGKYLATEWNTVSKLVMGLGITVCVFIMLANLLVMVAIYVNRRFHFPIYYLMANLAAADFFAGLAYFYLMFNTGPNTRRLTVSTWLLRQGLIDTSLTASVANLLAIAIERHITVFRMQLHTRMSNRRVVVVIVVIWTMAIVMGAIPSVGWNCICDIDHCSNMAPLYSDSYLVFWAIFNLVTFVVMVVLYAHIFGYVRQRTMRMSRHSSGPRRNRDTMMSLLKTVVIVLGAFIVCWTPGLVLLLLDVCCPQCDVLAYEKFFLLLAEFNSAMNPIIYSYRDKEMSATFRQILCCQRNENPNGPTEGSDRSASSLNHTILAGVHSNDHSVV
T3 sequence (Q9HBW0 whole entry): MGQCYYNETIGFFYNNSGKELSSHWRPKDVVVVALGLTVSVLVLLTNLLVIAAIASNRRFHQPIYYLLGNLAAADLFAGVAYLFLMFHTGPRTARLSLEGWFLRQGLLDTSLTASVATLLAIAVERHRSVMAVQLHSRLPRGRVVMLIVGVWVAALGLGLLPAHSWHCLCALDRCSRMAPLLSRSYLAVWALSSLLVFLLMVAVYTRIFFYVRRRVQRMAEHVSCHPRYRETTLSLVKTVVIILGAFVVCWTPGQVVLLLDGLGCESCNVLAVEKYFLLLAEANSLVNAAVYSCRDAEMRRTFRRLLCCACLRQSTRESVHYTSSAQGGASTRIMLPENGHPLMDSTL

| Compound | Receptor-type selectivity of agonist activity (LPA1 vs LPA2, LPA3) ([1]; GTPγ[35S] binding) | Calcium mobilization [2] | Aggregation of human platelets [3] | Inhibition of cAMP accumulation (agonist efficacy) [4] | Activation of chloride conductance [5] | Activation of chloride conductance [6] | Activation of chloride conductance [7] | Agonist activity/efficacy at LPA1 ([1]; compared to LPA) | Potency at LPA1 relative to LPA ([1]; vs 1-oleoyl LPA) | Inhibition of LPP2 [8] | Inhibition of LPP3 ([9]; 0.1, 1.0 and 10.0 mM vs 50 nM [32P]LPA) | Rank order potency of LPP inhibition [9] | Rank order potency of LPP inhibition ([9]; listed as VPC12031) | Inhibition of LPP1 [10] | Agonist activity/efficacy at LPA3 ([11]; compared to LPA) | Potency at LPA3 relative to LPA ([11]; vs 1-oleoyl LPA) | Agonist activity/efficacy at LPA2 ([12]; compared to LPA) | Potency at LPA2 relative to LPA ([12]; vs 1-oleoyl LPA) |
| --- | --- | --- | --- | --- | --- | --- | --- | --- | --- | --- | --- | --- | --- | --- | --- | --- | --- | --- |
| CCCCCCCC/C=C\CCCCCCCC(=O)NCCCP(=O)(O)O [wls-b8L, (9Z)-N-(3-phosphonopropyl)Octadec-9-enamide] | more potent and efficacious at LPA1 than at either LPA2 or LPA3; also recorded: distinctly more selective | inactive | does not elicit aggregation | fully efficacious | does not evoke this response | very modest response | very modest response | – | – | – | – | – | – | – | – | – | – | – |
| CCCCCCCC/C=C\CCCCCCCC(=O)NCCC(O)P(=O)(O)O (racemic) [NOHPP, (9Z)-N-(rac-3-hydroxy-3-phosphonopropyl)Octadec-9-enamide] | – | – | – | – | – | – | – | as efficacious as; also recorded: fully efficacious | somewhat less potent; also recorded: about one log order less potent | inactive | inhibited | LPP3>LPP1>>LPP2 | markedly better at the PAP2b (LPP3) than PAP2a (LPP1) | to a lesser extent | far less efficacious; also recorded: little activity | distinctly less potent; also recorded: greater than two log orders less potent | as efficacious as; also recorded: fully efficacious | somewhat less potent; also recorded: about one log order less potent |
